Assay: xn = mol fraction of the nth substance listed
Conditions: 293.15 K, Liquid, Vibrating tube method

Cc1ccc(C)c(C)c1 [1,2,4-trimethylbenzene] + CCCCO
mass density [kg/m3]
Conditions	x2 = 0	x2 = 0.1005	x2 = 0.2261	x2 = 0.2999	x2 = 0.3966	x2 = 0.5289	x2 = 0.6367	x2 = 0.7249	x2 = 0.7977	x2 = 0.9131
100 kPa	–	–	–	859.9	854.5	846.5	839.4	833.1	827.5	817.8
1000 kPa	875.7	870.8	864.3	860.4	855	847.1	840	833.7	828.1	818.4
5000 kPa	878.2	873.4	867	863.1	857.8	849.8	842.8	836.5	831	821.3
10000 kPa	881.4	876.6	870.2	866.4	861.1	853.1	846.1	839.9	834.3	824.7
20000 kPa	887.3	882.6	876.2	872.5	867.2	859.4	852.3	846.2	840.6	831.1
30000 kPa	892.9	888.3	881.9	878.2	873	865.2	858.2	852.1	846.5	837.1
40000 kPa	898.2	893.7	887.4	883.6	878.5	870.7	863.7	857.6	852.1	842.7
50000 kPa	903.2	898.7	892.4	888.8	883.6	875.8	868.9	862.8	857.3	847.9
60000 kPa	908	903.5	897.3	–	–	–	–	–	–	–

Source: the NIST ThermoML archive (doi:10.1016/j.jct.2017.03.006)
